{
  "source": "ChEMBL document CHEMBL1649146",
  "about": "“Contribution of the autolysin AtlA to the bactericidal activity of amoxicillin against Enterococcus faecalis JH2-2” (2009)",
  "key": {"[1]": {"tested_on": "Enterococcus faecalis", "assay": "Antibacterial activity against atlA-deficient Enterococcus faecalis JH2-2 by macrodilution method", "type": "functional"}, "[2]": {"tested_on": "Enterococcus faecalis", "assay": "Antibacterial activity against atlA-deficient Enterococcus faecalis JH2-2 assessed as decrease in decrease in bacterial count at 2 ug/ml after 6 hrs by macrodilution method", "type": "functional"}, "[3]": {"tested_on": "Enterococcus faecalis", "assay": "Ratio of MBC to MIC in Enterococcus faecalis JH2-2", "type": "functional"}, "[4]": {"tested_on": "Enterococcus faecalis", "assay": "Antibacterial activity against Enterococcus faecalis JH2-2 assessed as decrease in decrease in bacterial count at 2 ug/ml after 24 hrs by macrodilution method", "type": "functional"}, "[5]": {"tested_on": "Enterococcus faecalis", "assay": "Antibacterial activity against atlA-deficient Enterococcus faecalis JH2-2 infected in New Zealand White rabbit assessed as bacterial count per gram vegetation at 50 mg/kg, im TID for 3 days administered 48 hrs post bacterial challenge (reference value: 8.34+/-1.66 log10 CFU/g)", "type": "functional", "conditions": "route intramuscular"}, "[6]": {"tested_on": "Enterococcus faecalis", "assay": "Antibacterial activity against Enterococcus faecalis JH2-2 assessed as decrease in decrease in bacterial count at 2 ug/ml after 3 hrs by macrodilution method", "type": "functional"}, "[7]": {"tested_on": "Enterococcus faecalis", "assay": "Antibacterial activity against atlA-deficient Enterococcus faecalis JH2-2 assessed as decrease in decrease in bacterial count at 2 ug/ml after 24 hrs by macrodilution method", "type": "functional"}, "[8]": {"tested_on": "Enterococcus faecalis", "assay": "Antibacterial activity against atlA-deficient Enterococcus faecalis JH2-2 assessed as bacterial killing at 2 ug/ml by macrodilution method", "type": "functional, organism-based"}, "[9]": {"tested_on": "Enterococcus faecalis", "assay": "Antibacterial activity against Enterococcus faecalis JH2-2 by macrodilution method", "type": "functional"}, "[10]": {"tested_on": "Enterococcus faecalis", "assay": "Antibacterial activity against atlA-deficient Enterococcus faecalis JH2-2 assessed as decrease in decrease in bacterial count at 2 ug/ml after 3 hrs by macrodilution method", "type": "functional"}, "[11]": {"tested_on": "Enterococcus faecalis", "assay": "Antibacterial activity against atlA-deficient Enterococcus faecalis JH2-2 assessed as decrease in bacterial count at 2 ug/ml by macrodilution method", "type": "functional", "design": "scale not given: the % may be the effect or the level left"}, "[12]": {"tested_on": "Enterococcus faecalis", "assay": "Ratio of MBC to MIC in atlA-deficient Enterococcus faecalis JH2-2", "type": "functional"}, "[13]": {"tested_on": "Enterococcus faecalis", "assay": "Antibacterial activity against Enterococcus faecalis JH2-2 infected in New Zealand White rabbit assessed as bacterial count per gram vegetation at 50 mg/kg, im TID for 3 days administered 48 hrs post bacterial challenge (reference value: 9.40+/-0.62 log10 CFU/g)", "type": "functional", "conditions": "route intramuscular"}, "[14]": {"tested_on": "Enterococcus faecalis", "assay": "Antibacterial activity against Enterococcus faecalis JH2-2 assessed as bacterial killing at 2 ug/ml by macrodilution method", "type": "functional, organism-based"}, "[15]": {"tested_on": "Enterococcus faecalis", "assay": "Antibacterial activity against Enterococcus faecalis JH2-2 assessed as decrease in decrease in bacterial count at 2 ug/ml after 6 hrs by macrodilution method", "type": "functional"}},
  "note": "Calls of active or inactive are those of the source. The calls are words filed in the database; no cut-off is given here.",
  "data": [
    {"compound": "CC1(C)S[C@@H]2[C@H](NC(=O)[C@H](N)c3ccc(O)cc3)C(=O)N2[C@H]1C(=O)O", "note": "[AMOXICILLIN]", "values": [
      {"measurement": "MBC", "setting": "[1]", "value": "> 1020", "unit": "µg/mL"},
      {"measurement": "MIC", "setting": "[1]", "value": 1, "unit": "µg/mL"},
      {"measurement": "log10CFU/ml", "setting": "[2]", "value": 3.93},
      {"measurement": "Ratio", "setting": "[3]", "value": 4},
      {"measurement": "log10CFU/ml", "setting": "[4]", "value": 7.82},
      {"measurement": "log10CFU/g", "setting": "[5]", "value": 8.55},
      {"measurement": "log10CFU/ml", "setting": "[6]", "value": 2.57},
      {"measurement": "log10CFU/ml", "setting": "[7]", "value": 6.46},
      {"measurement": "Activity", "setting": "[8]", "value": "Active"},
      {"measurement": "MBC", "setting": "[9]", "value": 2, "unit": "µg/mL"},
      {"measurement": "MIC", "setting": "[9]", "value": 0.5, "unit": "µg/mL"},
      {"measurement": "log10CFU/ml", "setting": "[10]", "value": 1.5},
      {"measurement": "Activity", "setting": "[11]", "value": ">=99.9%"},
      {"measurement": "Ratio", "setting": "[12]", "value": ">=32"},
      {"measurement": "log10CFU/g", "setting": "[13]", "value": 7.69},
      {"measurement": "Activity", "setting": "[14]", "value": "Active"},
      {"measurement": "log10CFU/ml", "setting": "[15]", "value": 5.59}
    ]}
  ]
}
